# “Also recorded” adds a separate entry of the source.
# Experiment: Long term storage stability of the crystalline form, measured by PXRD
# Type: physicochemical
# Details: stored at 2° C. to 8° C. for one year; solid form checked by PXRD
# Method: The polymorphs disclosed herein may be characterized by their X-ray powder diffraction (PXRD) patterns. Thus, samples of carfilzomib prepared by processes disclosed herein, including crystalline carfilzomib form M1 and amorphous carfilzomib, were analyzed by PXRD on a BRUKER D-8 DISCOVER powder diffractometer equipped with goniometer of θ/2θ configuration and LYNX EYE detector. The Cu-anode X-ray tube was operated at 40 kV and 30 mA. The experiments were conducted over the 2θ range of 2.0°-50.0°, 0.030° step size, and 0.4 seconds step time.
# In some samples, individual impurities were present at levels less than 0.1%.
compound,measurement,value
"CC(C)C[C@H](NC(=O)[C@H](CCc1ccccc1)NC(=O)CN1CCOCC1)C(=O)N[C@@H](Cc1ccccc1)C(=O)N[C@@H](CC(C)C)C(=O)[C@@]1(C)CO1 [crystalline carfilzomib form M1, (2S)-N-((S)-1-((S)-4-methyl-1-((R)-2-methyloxiran-2-yl)-1-oxopentan-2-ylcarbamoyl)-2-phenylethyl)-2-((S)-2-(2-morpholinoacetamido)-4-phenylbutanamido)-4-methylpentanamide]",stability (measured by PXRD),exhibited stability; also recorded: stable
